Laboratory results published in the supplement of paper PMC11451515.

How the values were obtained:
Conditions in all cases: 48 h
NOMO1 [1] = assay: AUC of viability dose-response curve (% viability x log10 dose units); higher = less sensitive
In short: (§1)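 Area under the curve was integrated by trapezoidal rule from a log-logistic fit of normalised viability, with curves exceeding full viability scaled and quality-control failures removed. The fit had four parameters over log10 doses. Viability came from CellTiter-Glo One luminescence, normalised per plate to DMSO and cell-free wells, after leukemia cells adapted to each medium (500 or 1000 cells/well, 1536-well plates) were exposed to library compounds in DMSO for 48 h at 37°C. The 11 threefold doses ran from 47 μM to 0.79 nM.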

SEM cells [2] = assay: as above
In short: as §1

P12-Ichikawa [3] = assay: as above
In short: as §1

NOMO1 [4] = assay: cell viability relative to DMSO control; higher = less cytotoxic
In short: (§2)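 Viability was expressed as a per-plate percentage of DMSO wells, with cell-free wells as background. Leukemia cells (NOMO1 or SEM at 500 cells/well, P12-Ichikawa at 1000 cells/well) were adapted for at least four passages in each medium and seeded in 1536-well plates (5 μl). Library compounds in DMSO were pin-dosed over an 11-point threefold series from 47 μM to 0.79 nM, and CellTiter-Glo One luminescence was read after 48 h at 37°C.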

SEM cells [5] = assay: as above
In short: as §2

P12-Ichikawa [6] = assay: as above
In short: as §2

COc1ccc2c(c[n+](C)c3c4cc5c(cc4ccc23)OCO5)c1OC
AUC of viability dose-response curve
Conditions	NOMO1 [1]	P12-Ichikawa [3]	SEM cells [2]
HPLM + 10% dialyzed FBS	438	423	407
RPMI 5 mM glucose + 10% FBS	447	406	397
RPMI 5 mM glucose + 10% dialyzed FBS	449	404	402

CN1C(=O)C(Cc2c[nH]c3ccccc23)NC1=S (configuration not stated)
AUC of viability dose-response curve
Conditions	NOMO1 [1]	P12-Ichikawa [3]	SEM cells [2]
HPLM + 10% dialyzed FBS	467	458	437
RPMI 5 mM glucose + 10% FBS	448	450	405
RPMI 5 mM glucose + 10% dialyzed FBS	451	461	422

COCCCOc1cc(C[C@@H](C[C@H](N)[C@@H](O)C[C@H](C(=O)NCC(C)(C)C(N)=O)C(C)C)C(C)C)ccc1OC
AUC of viability dose-response curve
Conditions	NOMO1 [1]	P12-Ichikawa [3]	SEM cells [2]
HPLM + 10% dialyzed FBS	457	473	473
RPMI 5 mM glucose + 10% FBS	474	471	461
RPMI 5 mM glucose + 10% dialyzed FBS	461	475	458

COc1ccc(N(C(=O)Oc2c(C)cccc2C)c2ccnc(Nc3ccc(N4CCN(C)CC4)cc3)n2)c(OC)c1
AUC of viability dose-response curve
Conditions	HPLM + 10% dialyzed FBS	RPMI 5 mM glucose + 10% FBS	RPMI 5 mM glucose + 10% dialyzed FBS
P12-Ichikawa [3]	466	457	459
SEM cells [2]	456	455	451

O=C1\C=C(/OC2=C1C=CC=C2C3=CC=CC=C3)N4CCOCC4
AUC of viability dose-response curve
Conditions	HPLM + 10% dialyzed FBS	RPMI 5 mM glucose + 10% FBS	RPMI 5 mM glucose + 10% dialyzed FBS
NOMO1 [1]	410	392	390
P12-Ichikawa [3]	432	393	397

cell viability [%]
Conditions	NOMO1 [4]	P12-Ichikawa [6]	SEM cells [5]
HPLM + 10% dialyzed FBS, 0.000781 µM	95.4	88.3	45.8
HPLM + 10% dialyzed FBS, 0.00234 µM	99.2	93	90.5
HPLM + 10% dialyzed FBS, 0.00702 µM	99.9	95.2	89.2
HPLM + 10% dialyzed FBS, 0.0211 µM	90.4	91.3	80.6
HPLM + 10% dialyzed FBS, 0.0632 µM	91.9	96.3	65.1
HPLM + 10% dialyzed FBS, 0.19 µM	90.4	90.1	89.3
HPLM + 10% dialyzed FBS, 0.569 µM	86.7	94.4	90.3
HPLM + 10% dialyzed FBS, 1.71 µM	63.9	86.5	59
HPLM + 10% dialyzed FBS, 5.12 µM	82.5	87.6	87.3
HPLM + 10% dialyzed FBS, 15.4 µM	66.5	85.3	92.3
HPLM + 10% dialyzed FBS, 46.1 µM	75.6	87.1	58.3
RPMI 5 mM glucose + 10% FBS, 0.000781 µM	82.4	89.1	71.7
RPMI 5 mM glucose + 10% FBS, 0.00234 µM	88	84.5	114
RPMI 5 mM glucose + 10% FBS, 0.00702 µM	89.1	87.6	111
RPMI 5 mM glucose + 10% FBS, 0.0211 µM	84.7	89.8	115
RPMI 5 mM glucose + 10% FBS, 0.0632 µM	79.9	91.5	75.6
RPMI 5 mM glucose + 10% FBS, 0.19 µM	83	86	91.8
RPMI 5 mM glucose + 10% FBS, 0.569 µM	81.7	75.4	110
RPMI 5 mM glucose + 10% FBS, 1.71 µM	77	76.8	74
RPMI 5 mM glucose + 10% FBS, 5.12 µM	82.4	81.2	114
RPMI 5 mM glucose + 10% FBS, 15.4 µM	80.9	74.1	94.6
RPMI 5 mM glucose + 10% FBS, 46.1 µM	76	67.9	79.6
RPMI 5 mM glucose + 10% dialyzed FBS, 0.000781 µM	75.2	86.7	48.9
RPMI 5 mM glucose + 10% dialyzed FBS, 0.00234 µM	86.5	84.4	90
RPMI 5 mM glucose + 10% dialyzed FBS, 0.00702 µM	81.7	84.1	88.3
RPMI 5 mM glucose + 10% dialyzed FBS, 0.0211 µM	83.9	84.6	94.4
RPMI 5 mM glucose + 10% dialyzed FBS, 0.0632 µM	87.4	89.7	66.7
RPMI 5 mM glucose + 10% dialyzed FBS, 0.19 µM	79.7	84.1	80
RPMI 5 mM glucose + 10% dialyzed FBS, 0.569 µM	82.3	86	86.5
RPMI 5 mM glucose + 10% dialyzed FBS, 1.71 µM	66.1	77.2	61.9
RPMI 5 mM glucose + 10% dialyzed FBS, 5.12 µM	89.8	82.4	101
RPMI 5 mM glucose + 10% dialyzed FBS, 15.4 µM	79.1	80.3	84.7
RPMI 5 mM glucose + 10% dialyzed FBS, 46.1 µM	88.1	74.1	62.7

CNC(=O)c1ccccc1Nc1nc(Nc2ccc(N3CCOCC3)cc2OC)ncc1Cl
AUC of viability dose-response curve
Conditions	NOMO1 [1]	P12-Ichikawa [3]	SEM cells [2]
HPLM + 10% dialyzed FBS	387	408	349
RPMI 5 mM glucose + 10% FBS	397	404	332
RPMI 5 mM glucose + 10% dialyzed FBS	377	416	337

CN(N=O)C(=O)N[C@H]1C(O)OC(CO)[C@@H](O)[C@@H]1O (some centres not stated)
AUC of viability dose-response curve
Conditions	HPLM + 10% dialyzed FBS	RPMI 5 mM glucose + 10% FBS	RPMI 5 mM glucose + 10% dialyzed FBS
NOMO1 [1]	428	391	375
P12-Ichikawa [3]	397	383	368

cell viability [%]
Conditions	NOMO1 [4]	P12-Ichikawa [6]	SEM cells [5]
HPLM + 10% dialyzed FBS, 0.000781 µM	82.7	91.5	66.7
HPLM + 10% dialyzed FBS, 0.00234 µM	89.7	84.9	75.4
HPLM + 10% dialyzed FBS, 0.00702 µM	98.6	82.8	79.1
HPLM + 10% dialyzed FBS, 0.0211 µM	95.7	84.2	74.5
HPLM + 10% dialyzed FBS, 0.0632 µM	98.6	89.2	81.8
HPLM + 10% dialyzed FBS, 0.19 µM	82.6	81.9	74.6
HPLM + 10% dialyzed FBS, 0.569 µM	90.2	85.8	74
HPLM + 10% dialyzed FBS, 1.71 µM	85	82.8	77.2
HPLM + 10% dialyzed FBS, 5.12 µM	83.1	84.2	89.2
HPLM + 10% dialyzed FBS, 15.4 µM	93.1	60.5	40.3
HPLM + 10% dialyzed FBS, 46.1 µM	88.4	83	37.9
RPMI 5 mM glucose + 10% FBS, 0.000781 µM	77.7	83.3	101
RPMI 5 mM glucose + 10% FBS, 0.00234 µM	79.6	84.2	101
RPMI 5 mM glucose + 10% FBS, 0.00702 µM	82.4	76.3	106
RPMI 5 mM glucose + 10% FBS, 0.0211 µM	80.6	75.8	87.8
RPMI 5 mM glucose + 10% FBS, 0.0632 µM	81.3	81.3	106
RPMI 5 mM glucose + 10% FBS, 0.19 µM	90.3	85.2	76.3
RPMI 5 mM glucose + 10% FBS, 0.569 µM	85.7	74.2	86.5
RPMI 5 mM glucose + 10% FBS, 1.71 µM	73.7	87.6	108
RPMI 5 mM glucose + 10% FBS, 5.12 µM	81.5	72.8	119
RPMI 5 mM glucose + 10% FBS, 15.4 µM	88	78.5	48.3
RPMI 5 mM glucose + 10% FBS, 46.1 µM	79.5	83.7	51.6
RPMI 5 mM glucose + 10% dialyzed FBS, 0.000781 µM	69.3	70.2	63.9
RPMI 5 mM glucose + 10% dialyzed FBS, 0.00234 µM	78.8	81.9	74
RPMI 5 mM glucose + 10% dialyzed FBS, 0.00702 µM	74.3	83.9	73.7
RPMI 5 mM glucose + 10% dialyzed FBS, 0.0211 µM	75.5	74.1	63.8
RPMI 5 mM glucose + 10% dialyzed FBS, 0.0632 µM	84.3	79.6	70.4
RPMI 5 mM glucose + 10% dialyzed FBS, 0.19 µM	75.6	76.6	55.1
RPMI 5 mM glucose + 10% dialyzed FBS, 0.569 µM	81.2	80.2	80.9
RPMI 5 mM glucose + 10% dialyzed FBS, 1.71 µM	82.7	81.7	78.5
RPMI 5 mM glucose + 10% dialyzed FBS, 5.12 µM	81.4	71.3	80.8
RPMI 5 mM glucose + 10% dialyzed FBS, 15.4 µM	86	71	32.7
RPMI 5 mM glucose + 10% dialyzed FBS, 46.1 µM	72.4	77.5	43.3
